# Measurements published in PMC12867150, “A fungi-derived cyclic peptide enhances Th9-mediated antitumor immunity by targeting ZAP70 and SREBP1” (The Journal of Clinical Investigation, 2025).
# “And” between values parts separate entries of the source, which are not always exact repeats. Equal entries are not always repeated.
# Assays:
# TNF-α in human Th9 cells = experiment: Flow cytometry of TNF-α in human Th9 cells (Figure 8G); type: cell-based
# Method: For Th9 polarization, cultures were supplemented with IL-4 (10 ng/mL, PeproTech, catalog AF-200-04), TGF-β (1 ng/mL), and neutralizing anti–IFN-γ monoclonal antibody (10 μg/mL, clone B27, BioXcell, catalog BE0245). After 3 days of initial culture, cells were either collected for downstream assays or continued in extended culture with refreshed cytokines to maintain lineage commitment without antibodies. Th9 cells were collected at days 4, 5, and 6 for subsequent in vitro assays. For adoptive transfer studies, day 4–cultured Th9 cells were washed and prepared for intravenous injection.
# Details regarding staining panels (human and mouse), reagents (including clones and catalog numbers), acquisition settings, compensation/controls, and analysis procedures are provided in Supplemental Methods.
# MH9A4, Biolegend, Cat. No. 507605, PE/Cy7, clone MH9A4, Biolegend, Cat. No. […]
# clone Mab11, Biolegend, Cat. No. 502908), Perforin (APC, clone dG9, Biolegend, Cat.
# Flow cytometric acquisition was performed using a BD Fortessa or Cytek Aurora cytometer. Data were analyzed with FlowJo software (v10.8.1 or newer). Fluorescence compensation, isotype-matched controls, and fluorescence-minus-one (FMO) controls were applied as appropriate for multicolor panel validation.
# Cells were washed twice with PBS and lysed in 1 × lysis buffer (NCM, Cat. No. […]
# [1] = system: mitochondria of Th9 cells; experiment: Flow cytometry of mitochondrial membrane potential with TMRM (Figure 4N); type: cell-based, mouse
# Method: Mitochondrial mass and membrane potential were assessed using MitoTracker™ Deep Red FM (Thermo Fisher Scientific, catalog M22426) and TMRM (tetramethylrhodamine methyl ester; Macklin, catalog T868125), respectively, following the manufacturers’ protocols. Cells were incubated with the respective dyes, washed, and subjected to flow cytometry or fluorescence microscopy analysis. For ultrastructural assessment, mitochondrial number and diameter were quantified from high-resolution transmission electron microscopy (TEM) images using ImageJ software.
substance,measurement,setting,value
anteiso-C15 Leu7 surfactin [EpA],TNF-α production in human CD4⁺ T cells (flow cytometric analysis),"TNF-α in human Th9 cells; Figure 8G, Th9-polarizing conditions, individual replicates, one per column (n = 4)",321000 and 314000 and 322000 and 302000
same,"TNF-α expression, human Th9",TNF-α in human Th9 cells; result in words,higher TNF-α expression
same,TMRM,"[1]; Figure 4N, individual replicates, (n = 5)",178315 and 162266 and 165932 and 168795 and 170537
same,mitochondrial membrane potential,[1]; result in words,elevated mitochondrial membrane potential
